Molecular target: ceDCR-1/DRH-1/RDE-4 (Caenorhabditis elegans, UniProt G5EDI8)
Details: 5 mM ATP, BLT 42-bp dsRNA with deoxynucleotides

Chain of ceDCR-1/DRH-1/RDE-4 (G5EDI8 1-1037): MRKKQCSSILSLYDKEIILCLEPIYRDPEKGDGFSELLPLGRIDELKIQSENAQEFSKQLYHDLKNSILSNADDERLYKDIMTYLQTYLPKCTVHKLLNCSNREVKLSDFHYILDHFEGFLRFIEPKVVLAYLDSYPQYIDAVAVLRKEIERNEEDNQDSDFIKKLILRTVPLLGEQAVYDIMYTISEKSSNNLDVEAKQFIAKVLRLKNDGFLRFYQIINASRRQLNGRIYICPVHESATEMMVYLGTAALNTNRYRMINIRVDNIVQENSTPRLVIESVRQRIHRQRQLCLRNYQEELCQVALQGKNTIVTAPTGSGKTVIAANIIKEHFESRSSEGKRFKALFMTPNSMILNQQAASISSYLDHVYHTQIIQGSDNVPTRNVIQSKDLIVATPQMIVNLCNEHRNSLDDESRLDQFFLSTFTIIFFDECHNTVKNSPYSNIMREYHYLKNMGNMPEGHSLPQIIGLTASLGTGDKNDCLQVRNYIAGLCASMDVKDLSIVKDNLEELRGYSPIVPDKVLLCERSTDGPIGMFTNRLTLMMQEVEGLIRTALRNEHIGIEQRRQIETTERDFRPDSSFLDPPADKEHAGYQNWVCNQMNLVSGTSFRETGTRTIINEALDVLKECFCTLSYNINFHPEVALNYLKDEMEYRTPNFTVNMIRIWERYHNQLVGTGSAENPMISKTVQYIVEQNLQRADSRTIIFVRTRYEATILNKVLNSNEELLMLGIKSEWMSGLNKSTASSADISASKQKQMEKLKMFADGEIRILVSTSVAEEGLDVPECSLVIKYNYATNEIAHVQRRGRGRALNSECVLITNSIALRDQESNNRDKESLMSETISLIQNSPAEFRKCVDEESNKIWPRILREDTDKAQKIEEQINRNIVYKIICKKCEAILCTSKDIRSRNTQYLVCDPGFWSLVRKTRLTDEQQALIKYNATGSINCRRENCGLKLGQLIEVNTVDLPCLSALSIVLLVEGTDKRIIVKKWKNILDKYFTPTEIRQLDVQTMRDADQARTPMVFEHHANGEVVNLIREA
Chain of ceDCR-1/DRH-1/RDE-4 (P34529 whole entry partner): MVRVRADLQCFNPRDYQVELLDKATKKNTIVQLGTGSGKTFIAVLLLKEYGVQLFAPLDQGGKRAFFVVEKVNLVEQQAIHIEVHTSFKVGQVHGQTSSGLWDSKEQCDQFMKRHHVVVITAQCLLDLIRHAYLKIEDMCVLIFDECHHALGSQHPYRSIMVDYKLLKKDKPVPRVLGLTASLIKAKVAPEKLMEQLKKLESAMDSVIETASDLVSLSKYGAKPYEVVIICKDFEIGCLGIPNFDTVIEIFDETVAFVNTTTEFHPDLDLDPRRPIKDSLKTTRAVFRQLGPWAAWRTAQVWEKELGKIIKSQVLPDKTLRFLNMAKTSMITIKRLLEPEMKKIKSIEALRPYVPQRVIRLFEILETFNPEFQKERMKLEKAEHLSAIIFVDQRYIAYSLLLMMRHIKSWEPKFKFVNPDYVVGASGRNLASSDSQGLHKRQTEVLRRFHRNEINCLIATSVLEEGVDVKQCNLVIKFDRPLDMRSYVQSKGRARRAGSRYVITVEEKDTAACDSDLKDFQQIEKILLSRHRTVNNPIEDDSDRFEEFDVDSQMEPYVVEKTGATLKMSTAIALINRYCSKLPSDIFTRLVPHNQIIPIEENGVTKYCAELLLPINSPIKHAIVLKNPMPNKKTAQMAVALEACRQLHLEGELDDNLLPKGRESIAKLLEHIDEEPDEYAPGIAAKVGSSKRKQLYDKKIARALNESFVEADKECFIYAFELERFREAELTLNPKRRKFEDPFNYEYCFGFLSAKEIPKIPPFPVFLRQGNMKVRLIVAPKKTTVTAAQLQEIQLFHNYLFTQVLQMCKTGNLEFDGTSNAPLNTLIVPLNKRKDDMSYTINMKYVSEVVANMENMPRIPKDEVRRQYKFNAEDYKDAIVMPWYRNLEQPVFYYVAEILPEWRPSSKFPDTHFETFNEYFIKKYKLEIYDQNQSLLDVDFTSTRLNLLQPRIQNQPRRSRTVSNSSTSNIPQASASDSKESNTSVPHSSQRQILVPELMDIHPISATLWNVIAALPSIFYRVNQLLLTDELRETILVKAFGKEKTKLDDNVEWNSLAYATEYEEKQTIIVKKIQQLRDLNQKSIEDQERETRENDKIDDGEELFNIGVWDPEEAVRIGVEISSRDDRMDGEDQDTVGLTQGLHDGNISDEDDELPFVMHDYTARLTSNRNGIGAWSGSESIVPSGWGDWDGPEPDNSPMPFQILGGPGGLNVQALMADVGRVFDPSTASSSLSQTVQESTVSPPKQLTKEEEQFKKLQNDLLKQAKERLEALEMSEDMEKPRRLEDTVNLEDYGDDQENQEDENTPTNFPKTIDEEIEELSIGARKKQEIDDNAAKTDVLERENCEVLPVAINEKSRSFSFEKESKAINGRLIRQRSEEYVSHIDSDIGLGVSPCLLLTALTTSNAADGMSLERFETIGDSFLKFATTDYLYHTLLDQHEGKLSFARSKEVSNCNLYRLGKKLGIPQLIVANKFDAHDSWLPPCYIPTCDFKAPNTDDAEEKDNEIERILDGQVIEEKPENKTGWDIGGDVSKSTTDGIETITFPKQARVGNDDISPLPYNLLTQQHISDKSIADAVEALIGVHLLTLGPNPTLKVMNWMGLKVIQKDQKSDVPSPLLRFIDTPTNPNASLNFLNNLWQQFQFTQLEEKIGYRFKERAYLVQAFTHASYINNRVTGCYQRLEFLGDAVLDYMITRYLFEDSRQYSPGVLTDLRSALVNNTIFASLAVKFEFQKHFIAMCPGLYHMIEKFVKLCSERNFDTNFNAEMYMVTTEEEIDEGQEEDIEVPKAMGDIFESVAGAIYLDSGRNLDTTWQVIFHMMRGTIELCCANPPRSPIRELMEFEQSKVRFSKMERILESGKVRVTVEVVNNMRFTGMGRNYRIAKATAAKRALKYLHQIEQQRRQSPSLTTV
Chain of ceDCR-1/DRH-1/RDE-4 (G5EBF5 1-385 partner): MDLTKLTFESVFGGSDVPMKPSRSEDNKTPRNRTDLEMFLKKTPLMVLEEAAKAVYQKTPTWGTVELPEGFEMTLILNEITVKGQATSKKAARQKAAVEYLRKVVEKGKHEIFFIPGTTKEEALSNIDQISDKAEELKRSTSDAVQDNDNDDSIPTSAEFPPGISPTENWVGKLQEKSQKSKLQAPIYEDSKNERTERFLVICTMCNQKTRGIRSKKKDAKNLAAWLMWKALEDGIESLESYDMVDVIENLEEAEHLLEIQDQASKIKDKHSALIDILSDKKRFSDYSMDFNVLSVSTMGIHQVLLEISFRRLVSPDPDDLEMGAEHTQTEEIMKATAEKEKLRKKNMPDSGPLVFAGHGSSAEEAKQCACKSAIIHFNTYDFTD

## Nc1ncnc2c1ncn2[C@@H]1O[C@H](COP(=O)(O)OP(=O)(O)OP(=O)(O)O)[C@@H](O)[C@H]1O [ATP]
  streptavidin-displacement (ATP-dependent translocation): Wildtype C. elegans antiviral complex showed ATP-dependent streptavidin displacement on this substrate
